In paper PMC4567917 (Bioorganic chemistry, 2015):
Read-outs that look alike come from different tables or passages of the source. Non-standard residues stand in square brackets, D forms with d. No end group written: not given here. *: point of attachment. Biotin = O=C1N[C@H]2[C@H](CS[C@H]2CCCCC(=O)*)N1; Dap = NC[C@H](N)C(=O)O; Ahx = NCCCCCC(=O)O

Experiments:
GOAT = settings: ref [33], cited from earlier work; for Km: read-out: published Km, published values
mouse GOAT [1] = target: T1, mouse GOAT (Mus musculus, UniProt P0C7A3); assay: Microsomal ghrelin octanoyltransferase assay; settings: for Km: read-out: Km (apparent) for octanoyl-CoA; for Km / Vmax (apparent) for octanoyl-CoA / Vmax (apparent): 50 μM palmitoyl-CoA, 1 min at 30°C; for Km / Vmax (apparent) for octanoyl-CoA: 25 μg microsome protein; for Vmax (apparent): ghrelin substrate varied, 25 μg microsome protein (2 ng GOAT); for Vmax (apparent) / maximum reaction rate, fold lower than for the natural Ser analogs: 1 μM octanoyl-CoA; for maximum reaction rate, fold lower than for the natural Ser analogs: relative to the Ser3 analog
T1 sequence (P0C7A3 1-435): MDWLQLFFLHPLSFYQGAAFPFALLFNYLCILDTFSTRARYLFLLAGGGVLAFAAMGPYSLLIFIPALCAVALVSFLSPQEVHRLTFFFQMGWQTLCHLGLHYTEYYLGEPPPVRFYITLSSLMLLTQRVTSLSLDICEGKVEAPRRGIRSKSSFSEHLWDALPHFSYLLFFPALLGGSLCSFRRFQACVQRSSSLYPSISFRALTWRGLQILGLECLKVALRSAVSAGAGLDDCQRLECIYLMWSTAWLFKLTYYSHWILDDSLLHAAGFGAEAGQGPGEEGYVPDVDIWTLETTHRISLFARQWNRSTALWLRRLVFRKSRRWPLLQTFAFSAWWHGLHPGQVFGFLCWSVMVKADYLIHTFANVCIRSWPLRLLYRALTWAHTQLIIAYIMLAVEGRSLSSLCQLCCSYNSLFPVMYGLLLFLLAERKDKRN

[2] = cited from earlier work
mouse GOAT [3] = target: T1, mouse GOAT; assay: Ghrelin octanoyltransferase assays at varying pH; type: biochemical; settings: 7.5 μM and 100 μM substrate, 1 min, Bis-Tris propane pH 6–9

CCCCCCCC(=O)SCCNC(=O)CCNC(=O)[C@H](O)C(C)(C)COP(=O)(O)OP(=O)(O)OC[C@H]1O[C@@H](n2cnc3c(N)ncnc32)[C@H](O)[C@@H]1OP(=O)(O)O [Octanoyl-CoA, reference compound]
Km (GOAT): 0.6 µM
microsomal octanoyl-CoA hydrolysis (GOAT; with 50 μM palmitoyl-CoA, under the conditions of the assay): < 25%
Km (mouse GOAT [1]; vs 10 μM Ghrelin27): 440 ± 40 nM
Km (mouse GOAT [1]; vs 80 μM Ghrelin10): 810 ± 40 nM
Vmax (apparent) for octanoyl-CoA (mouse GOAT [1]; vs 10 μM Ghrelin27): 250 ± 8 nmol/min/mg
Vmax (apparent) for octanoyl-CoA (mouse GOAT [1]; vs 80 μM Ghrelin10): 190 ± 4 nmol/min/mg

N[C@@H](CO)C(=O)O [Ser]
sidechain pKa (ROH to RO-) ([2]; ref [37]): ~ 13

NCC(N)C(=O)O (stereo not shown) [amino-Ala, 2,3-diaminoproprionic acid]
sidechain pKa (RNH3+ to RNH2) ([2]; peptide-incorporated residue, ref [36]): ~ 8

GS(Dap)FLSPEHQ(Ahx)K(Biotin)G [Dap3-Ghrelin10]
variation of octanoylation rate across pH 6–9 (mouse GOAT [3]): ≤ 2 fold
Vmax (apparent) (mouse GOAT [1]): 74 ± 8 nmol/min/mg
maximum reaction rate, fold lower than for the natural Ser analogs (mouse GOAT [1]): approximately 2 fold

GSSFLSPEHQRVQQRKESKKPPAKLQPK (Biotin)G (GSSFLSPEHQRVQQRKESKKPPAKLQPK-{Gly(Biotin)}; not fully specified) [Ghrelin27]
Vmax (apparent) (mouse GOAT [1]): 230 ± 10 nmol/min/mg
fold lower apparent Km relative to Ghrelin10 (mouse GOAT [1]; relative to Ghrelin10): 10 fold

GSSFLSPEHQ[Ahx]K(Biotin)G [Ghrelin10]
variation of octanoylation rate across pH 6–9 (mouse GOAT [3]): ≤ 2 fold
Vmax (apparent) (mouse GOAT [1]): 160 ± 10 nmol/min/mg
fold higher apparent Km than Ghrelin27 (mouse GOAT [1]; relative to Ghrelin27): ~ 10 fold

GS[Dap]FLSPEHQRVQQRKESKKPPAKLQPK(Biotin)G [Dap3-Ghrelin27]
Vmax (apparent) (mouse GOAT [1]): 85 ± 5 nmol/min/mg
maximum reaction rate, fold lower than for the natural Ser analogs (mouse GOAT [1]): approximately 2 fold

B1: proghrelin-His8: proghrelin with His8 tag; proghrelin is likely the natural substrate for GOAT (protein, UniProt Q9UBU3 24-117, looked up)
pro-form: GSSFLSPEHQRVQQRKESKKPPAKLQPRALAGWLRPEDGGQAEGAEDELEVRFNAPFDVGIKLSGVQYQQHSQALGKFLQDILWEEAKEAPADK
modifications: pro-form His8 tag
Km (GOAT): 6 µM
